Test results from US20210338846A1, “COMPETITIVE PROSTATE-SPECIFIC MEMBRANE ANTIGEN (PSMA) BINDING AGENTS FOR REDUCTION OF NON-TARGET ORGAN UPTAKE OF RADIOLABELED PSMA INHIBITORS FOR PSMA POSITIVE TUMOR IMAGING AND RADIOPHARMACEUTICAL THERAPY” (The Johns Hopkins University, priority 2018, published 2021).
Read-outs that look alike come from different tables or passages of the source.

Test system: PSMA+ PC-3 PiP and PSMA− PC-3 flu tumors
[1] = 1 h, co-injection 0.5 nmole YC-I-27
[2] = 4 h, co-injection 0.5 nmole YC-I-27
[3] = 24 h, co-injection 0.5 nmole YC-I-27
[4] = 2 hours (footnote a), co-injection 0.5 nmole YC-I-27

## O=C([O-])CN1CCN(CC(=O)[O-])CCN(CC(=O)NCCCCC(=O)N(CCCC[C@H](NC(=O)N[C@@H](CCC(=O)O)C(=O)O)C(=O)O)Cc2ccc([211At])cc2)CCN(CC(=O)[O-])CC1.[Lu+3] [[^211At]VK-02-90-Lu]
1 h, No CI
  Biodistribution: Blood: 0.8 ± 0.2 % injected dose/gram
  Biodistribution: Flu tumor: 0.4 ± 0.2 % injected dose/gram
  Biodistribution: Lacrimal gland: 0.8 ± 0.9 % injected dose/gram
  Biodistribution: PiP tumor: 31 ± 5 % injected dose/gram
  Biodistribution: Salivary gland: 0.5 ± 0.2 % injected dose/gram
  Biodistribution: kidneys: 90 ± 43 % injected dose/gram
  Biodistribution: spleen: 2.5 ± 0.9 % injected dose/gram
  Biodistribution: stomach: 0.4 ± 0.1 % injected dose/gram
[1]
  Biodistribution: Blood: 0.5 ± 0.1 % injected dose/gram
  Biodistribution: Flu tumor: 0.4 ± 0.1 % injected dose/gram
  Biodistribution: Lacrimal gland: 0 % injected dose/gram
  Biodistribution: PiP tumor: 25 ± 4 % injected dose/gram
  Biodistribution: Salivary gland: 0.4 ± 0.2 % injected dose/gram
  Biodistribution: kidneys: 2.2 ± 0.6 % injected dose/gram
  Biodistribution: spleen: 0.3 ± 0.4 % injected dose/gram
  Biodistribution: stomach: 0.4 ± 0.2 % injected dose/gram
4 h, No CI
  Biodistribution: Blood: 0.1 ± 0.03 % injected dose/gram
  Biodistribution: Flu tumor: 0.1 ± 0.1 % injected dose/gram
  Biodistribution: Lacrimal gland: 0.3 ± 1.1 % injected dose/gram
  Biodistribution: PiP tumor: 17 ± 5 % injected dose/gram
  Biodistribution: Salivary gland: 0.2 ± 0.1 % injected dose/gram
  Biodistribution: kidneys: 2.1 ± 0.6 % injected dose/gram
  Biodistribution: spleen: 0 % injected dose/gram
  Biodistribution: stomach: 0.3 ± 0.2 % injected dose/gram
[2]
  Biodistribution: Blood: 0.2 ± 0.1 % injected dose/gram
  Biodistribution: Flu tumor: 0.0 ± 0.04 % injected dose/gram
  Biodistribution: Lacrimal gland: 0 % injected dose/gram
  Biodistribution: PiP tumor: 19 ± 5 % injected dose/gram
  Biodistribution: Salivary gland: 0.3 ± 0.2 % injected dose/gram
  Biodistribution: kidneys: 0.7 ± 0.1 % injected dose/gram
  Biodistribution: spleen: 0.8 ± 0.5 % injected dose/gram
  Biodistribution: stomach: 0.4 ± 0.05 % injected dose/gram
24 h, No CI
  Biodistribution: Blood: 0 % injected dose/gram
  Biodistribution: Flu tumor: 0 % injected dose/gram
  Biodistribution: Lacrimal gland: 0 % injected dose/gram
  Biodistribution: PiP tumor: 9.5 ± 1.0 % injected dose/gram
  Biodistribution: Salivary gland: 0 % injected dose/gram
  Biodistribution: kidneys: 0.02 ± 0.02 % injected dose/gram
  Biodistribution: spleen: 0 % injected dose/gram
  Biodistribution: stomach: 0 % injected dose/gram
[3]
  Biodistribution: Blood: 0.03 ± 0.3 % injected dose/gram
  Biodistribution: Flu tumor: 0.2 ± 0.3 % injected dose/gram
  Biodistribution: Lacrimal gland: 0 % injected dose/gram
  Biodistribution: PiP tumor: 18 ± 8 % injected dose/gram
  Biodistribution: Salivary gland: 0 % injected dose/gram
  Biodistribution: kidneys: 0.4 ± 0.5 % injected dose/gram
  Biodistribution: spleen: 02.5 ± 4.3 % injected dose/gram
  Biodistribution: stomach: 0.4 ± 0.7 % injected dose/gram

## O=C(O)CC[C@H](NC(=O)N[C@@H](CCC(=O)NCCc1ccc([125I])cc1)C(=O)O)C(=O)O [[^125I]HS-549]
1 h, No CI
  Biodistribution: Blood: 5.9 ± 1.0 % injected dose/gram
  Biodistribution: Flu tumor: 2.2 ± 0.5 % injected dose/gram
  Biodistribution: PiP tumor: 78 ± 19 % injected dose/gram
  Biodistribution: kidneys: 106 ± 19 % injected dose/gram
  Biodistribution: spleen: 6.8 ± 3.4 % injected dose/gram
  Biodistribution: stomach: 0.9 ± 0.2 % injected dose/gram
  Biodistribution: thyroid: 1.2 ± 0.4 % injected dose/gram
[1]
  Biodistribution: Blood: 2.6 ± 0.6 % injected dose/gram
  Biodistribution: Flu tumor: 1.0 ± 0.45 % injected dose/gram
  Biodistribution: Lacrimal gland: 1.1 ± 0.4 % injected dose/gram
  Biodistribution: PiP tumor: 31 ± 4.2 % injected dose/gram
  Biodistribution: Salivary gland: 1.0 ± 0.2 % injected dose/gram
  Biodistribution: kidneys: 12.1 ± 1.9 % injected dose/gram
  Biodistribution: spleen: 0.8 ± 0.2 % injected dose/gram
  Biodistribution: stomach: 0.8 ± 0.3 % injected dose/gram
  Biodistribution: thyroid: 5.6 ± 9.2 % injected dose/gram
[4]
  Biodistribution: Blood: 0.8 ± 0.1 % injected dose/gram
  Biodistribution: Flu tumor: 0.3 ± 0.15 % injected dose/gram
  Biodistribution: Lacrimal gland: 0.5 ± 0.3 % injected dose/gram
  Biodistribution: PiP tumor: 39 ± 4 % injected dose/gram
  Biodistribution: Salivary gland: 0.4 ± 0.2 % injected dose/gram
  Biodistribution: kidneys: 2.8 ± 0.8 % injected dose/gram
  Biodistribution: spleen: 0.4 ± 0.1 % injected dose/gram
  Biodistribution: stomach: 0.3 ± 0.1 % injected dose/gram
  Biodistribution: thyroid: 0.3 ± 0.1 % injected dose/gram
4 h, No CI
  Biodistribution: Blood: 2.9 ± 0.3 % injected dose/gram
  Biodistribution: Flu tumor: 1.5 ± 0.3 % injected dose/gram
  Biodistribution: PiP tumor: 75 ± 13 % injected dose/gram
  Biodistribution: kidneys: 97 ± 39 % injected dose/gram
  Biodistribution: spleen: 2.7 ± 0.8 % injected dose/gram
  Biodistribution: stomach: 0.5 ± 0.2 % injected dose/gram
  Biodistribution: thyroid: 0.7 ± 0.3 % injected dose/gram
21 hours (footnote b), No CI
  Biodistribution: Blood: 1.4 ± 0.4 % injected dose/gram
  Biodistribution: Flu tumor: 0.4 ± 0.2 % injected dose/gram
  Biodistribution: PiP tumor: 23 ± 2 % injected dose/gram
  Biodistribution: kidneys: 3.1 ± 1.6 % injected dose/gram
  Biodistribution: spleen: 0.3 ± 0.1 % injected dose/gram
  Biodistribution: stomach: 0.1 ± 0.04 % injected dose/gram
  Biodistribution: thyroid: 0.4 ± 0.05 % injected dose/gram
[3]
  Biodistribution: Blood: 0.6 ± 0.3 % injected dose/gram
  Biodistribution: Flu tumor: 0.2 ± 0.2 % injected dose/gram
  Biodistribution: Lacrimal gland: 0.2 ± 0.1 % injected dose/gram
  Biodistribution: PiP tumor: 35 ± 5 % injected dose/gram
  Biodistribution: Salivary gland: 0.2 ± 0.1 % injected dose/gram
  Biodistribution: kidneys: 0.7 ± 0.3 % injected dose/gram
  Biodistribution: spleen: 0.1 ± 0.07 % injected dose/gram
  Biodistribution: stomach: 0.1 ± 0.05 % injected dose/gram
  Biodistribution: thyroid: 0.5 ± 0.8 % injected dose/gram
